Values of other authors, collected in PubChem BioAssay AID1259409 (Chemical Carcinogenesis Research Information System (CCRIS), 2018).
Where “and” joins values, the source holds several entries; their conditions need not be identical. Identical values can stand only once.

Test system: rodent chemically induced tumor inhibition, incidence and multiplicity
Test: CCRIS tumor inhibitor studies
Conditions: Species: RAT, Promoter: NONE USED

For COc1ccc2c(c1)c(CC(=O)O)c(C)n2C(=O)c1ccc(Cl)cc1, the “tumour outcome (control, treated, inhibition, significance)” value (Carcinogen: DIETHYLNITROSAMINE, 55-18-5, N-METHYL-N-NITROSOUREA, 684-93-5, N-BUTYL-N-(4-HYDROXYBUTYL)NITROSAMINE, 3817-11-6, 1,2-DIM, Carcinogen: DIETHYLNITROSAMINE, 55-18-5, N-METHYL-N-NITROSOUREA, 684-93-5, N-BUTYL-N-(4-HYDROXYBUTYL)NITROSAMINE, 3817-11-6, 1,2-DIM, Dose [Inhibitor]: 0, 20 PPM IN DRINKING WATER FOR 23 WK BEGINNING 1 WK POST CARCINOGEN TREATMENT (STUDY DURATION: 28 WK), Route [Inhibitor]: ORAL, Strain/Sex: F344/MALE, Target Tissue: Type of Lesion: LUNG: ADENOMA, Dose [Carcinogen]: 100 MG/KG BW DEN ONCE, 20 MG/KG BW MNU ONCE ON DAYS 6,9, AND 12, 0.05% BBN IN DRINKING WATER FOR FIRST TWO WK, 40 MG/KG, Dose [Carcinogen]: 100 MG/KG BW DEN ONCE, 20 MG/KG BW MNU ONCE ON DAYS 6,9, AND 12, 0.05% BBN IN DRINKING WATER FOR FIRST TWO WK, 40 MG/KG) is listed as 8/20 (40%), 2/19 (11%), 73%, p<0.05, the “tumour outcome (control, treated, inhibition, significance)” value (Carcinogen: DIETHYLNITROSAMINE, 55-18-5, N-METHYL-N-NITROSOUREA, 684-93-5, N-BUTYL-N-(4-HYDROXYBUTYL)NITROSAMINE, 3817-11-6, 1,2-DIM, Carcinogen: DIETHYLNITROSAMINE, 55-18-5, N-METHYL-N-NITROSOUREA, 684-93-5, N-BUTYL-N-(4-HYDROXYBUTYL)NITROSAMINE, 3817-11-6, 1,2-DIM, Dose [Inhibitor]: 0, 20 PPM IN DRINKING WATER FOR 23 WK BEGINNING 1 WK POST CARCINOGEN TREATMENT (STUDY DURATION: 28 WK), Route [Inhibitor]: ORAL, Strain/Sex: F344/MALE, Target Tissue: Type of Lesion: THYROID: FOLLICULAR ADENOMA, Dose [Carcinogen]: 100 MG/KG BW DEN ONCE, 20 MG/KG BW MNU ONCE ON DAYS 6,9, AND 12, 0.05% BBN IN DRINKING WATER FOR FIRST TWO WK, 40 MG/KG, Dose [Carcinogen]: 100 MG/KG BW DEN ONCE, 20 MG/KG BW MNU ONCE ON DAYS 6,9, AND 12, 0.05% BBN IN DRINKING WATER FOR FIRST TWO WK, 40 MG/KG) is listed as 6/20 (30%), 2/19 (11%), 63%, not significant and 1/20 (5%), 1/19 (5%), 0%, not significant and the “tumour outcome (control, treated, inhibition, significance)” value (Carcinogen: DIETHYLNITROSAMINE, 55-18-5, N-METHYL-N-NITROSOUREA;684-93-5, N-BUTYL-N-(4-HYDROXYBUTYL)NITROSAMINE, 3817-11-6, 1,2-DIME, Carcinogen: DIETHYLNITROSAMINE, 55-18-5, N-METHYL-N-NITROSOUREA;684-93-5, N-BUTYL-N-(4-HYDROXYBUTYL)NITROSAMINE, 3817-11-6, 1,2-DIME, Dose [Inhibitor]: 0, 20 PPM IN DRINKING WATER FOR 23 WK BEGINNING 1 WK POST CARCINOGEN TREATMENT (STUDY DURATION: 28 WK), Route [Inhibitor]: ORAL, Strain/Sex: F344/MALE, Target Tissue: Type of Lesion: SMALL INTESTINE: ADENOMA, Dose [Carcinogen]: 100 MG/KG BW DEN ONCE, 20 MG/KG BW MNU ONCE ON DAYS 6,9, AND 12, 0.05% BBN IN DRINKING WATER FOR FIRST TWO WK, 40 MG/KG, Dose [Carcinogen]: 100 MG/KG BW DEN ONCE, 20 MG/KG BW MNU ONCE ON DAYS 6,9, AND 12, 0.05% BBN IN DRINKING WATER FOR FIRST TWO WK, 40 MG/KG) is listed as 5/20 (25%), 0/19 (0%), 100%, p<0.05. For the same compound, the “tumour outcome (control, treated, inhibition, significance)” value (Carcinogen: DIETHYLNITROSAMINE, 55-18-5, N-METHYL-N-NITROSOUREA, 684-93-5, N-METHYL-N-(4-HYDROXYBUTYL)NITROSAMINE, 3817-11-6, 1,2-DI, Carcinogen: DIETHYLNITROSAMINE, 55-18-5, N-METHYL-N-NITROSOUREA, 684-93-5, N-METHYL-N-(4-HYDROXYBUTYL)NITROSAMINE, 3817-11-6, 1,2-DI, Dose [Inhibitor]: 0, 20 PPM IN DRINKING WATER FOR 23 WK BEGINNING 1 WK POST CARCINOGEN TREATMENT (STUDY DURATION: 28 WK), Route [Inhibitor]: ORAL, Strain/Sex: F344/MALE, Target Tissue: Type of Lesion: SMALL INTESTINE: ADENOCARCINOMA, Dose [Carcinogen]: 100 MG/KG BW DEN ONCE, 20 MG/KG BW MNU ONCE ON DAYS 6,9, AND 12, 0.05% BBN IN DRINKING WATER FOR FIRST TWO WK, 40 MG/KG, Dose [Carcinogen]: 100 MG/KG BW DEN ONCE, 20 MG/KG BW MNU ONCE ON DAYS 6,9, AND 12, 0.05% BBN IN DRINKING WATER FOR FIRST TWO WK, 40 MG/KG) was 2/20 (10%), 0/19 (0%), 100%, not significant and the “tumour outcome (control, treated, inhibition, significance)” value (Carcinogen: METHYLAZOXYMETHANOL, 590-96-5, Dose [Inhibitor]: 7.5 MG/KG BW DAILY FOR 3 WK STARTING 27 WK AFTER THE START OF CARCINOGEN TREATMENT (STUDY DURATION: 30 WK), Route [Inhibitor]: INTRARECTAL, Strain/Sex: DONRYU/MALE, Target Tissue: Type of Lesion: LARGE INTESTINE: ADENOCARCINOMA, Dose [Carcinogen]: 20 MG/KG BW 1/WK FOR 6 WK) was 19/23 (83%), 15/30 (50%), 40%, p<0.05.
